Test results: the supplement of paper PMC6335503

How the values were obtained:
Assay in all cases: cell viability, percent of DMSO control (CellTiter-Glo); higher = more viable cells
Conditions in all cases: 72 h
[1] = system: DFTD cell line T2 (05/2569)
Protocol: (§1)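 Eight-point dose titration of 41 screen hits in triplicate wells on four Tasmanian devil DFTD tumour cell lines (T1-T4) and devil fibroblasts, 384-well plates. Viability was read by CellTiter-Glo (ATP) after 72 h at 37 °C. Percent of control per plate: DMSO wells = 100%, positive-control wells = 0%.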

[2] = system: DFTD cell line T1 (06/2887)
Protocol: as §1

[3] = system: DFTD cell line T3 (06/0368)
Protocol: as §1

[4] = system: DFTD cell line T4 (07/0192)
Protocol: as §1

CN(C)C/C=C/C(=O)Nc1cc2c(Nc3ccc(F)c(Cl)c3)ncnc2cc1O[C@H]1CCOC1 [Afatinib (BIBW2992)]
cell viability [%]
Conditions	0.00617 µM	0.0185 µM	0.0556 µM	0.166667 µM	0.5 µM	1.5 µM	4.5 µM	13.5 µM
[1]	112	89.2	72.7	39.8	43.4	33.4	30.8	5.92
[2]	102	58.8	29	19	24.5	18.8	4.12	1.43
[3]	105	84.4	50.4	34	31.7	31.5	24	6.87
[4]	98.9	81.1	46.3	18.2	13.9	18.8	5.93	1.47

C=CC(=O)Nc1cc2c(Nc3ccc(F)c(Cl)c3)ncnc2cc1OCCCN1CCOCC1 [Canertinib (CI-1033)]
cell viability [%]
Conditions	0.00617 µM	0.0185 µM	0.0556 µM	0.166667 µM	0.5 µM	1.5 µM	4.5 µM	13.5 µM
[1]	120	106	116	98	91.1	33.5	33.7	13.8
[2]	118	106	109	98.1	42.6	18.3	18.2	8.82
[3]	92.6	110	113	110	89	49.7	32.5	38.9
[4]	104	107	107	107	86.1	39.8	24	21

Nc1ccc(F)cc1NC(=O)c1ccc(CNC(=O)/C=C/c2cccnc2)cc1 [Chidamide]
cell viability [%]
Conditions	0.0309 µM	0.0926 µM	0.277778 µM	0.833333 µM	2.5 µM	7.5 µM	22.5 µM	67.5 µM
[1]	102	79.7	69.8	29.6	11.9	9.75	7.82	9.23
[2]	111	97.4	38.5	28.7	9.38	-0.502	13.2	18.1
[3]	102	78.9	56.3	39	18.9	18.2	14.3	11.1
[4]	112	101	83	48.5	22.2	19.1	15.3	20.2

CC1(C)CC(=O)C2=C(C1)NC(=S)NC2c1cccc(O)c1 (stereo not given) [Dimethylenastron]
cell viability [%]
Conditions	0.00617 µM	0.0185 µM	0.0556 µM	0.166667 µM	0.5 µM	1.5 µM	4.5 µM	13.5 µM
[1]	107	130	117	104	92.3	79.2	73.7	71.3
[2]	113	126	115	102	70.9	50.1	42.5	33.8
[3]	101	119	102	110	108	94.4	103	86.2
[4]	118	92.6	106	105	93.9	81.3	62.2	61.7

COc1cccc2c1C(=O)c1c(O)c3c(c(O)c1C2=O)C[C@@](O)(C(=O)CO)C[C@@H]3O[C@H]1C[C@H](N)[C@H](O)[C@H](C)O1 [Doxorubicin]
cell viability [%]
Conditions	0.00617 µM	0.0185 µM	0.0556 µM	0.166667 µM	0.5 µM	1.5 µM	4.5 µM	13.5 µM
[1]	108	98.7	96.5	88.7	64.5	13.4	-8.33	-4.69
[2]	109	105	104	85.8	61.2	2.77	-6.73	-3.65
[3]	112	96.6	98.6	77	66.5	21.6	-3.26	4.78
[4]	104	106	96.8	84.9	53.4	2.44	-5.87	-5.47

C#Cc1cccc(Nc2ncnc3cc(OCCOC)c(OCCOC)cc23)c1.Cl [Erlotinib hydrochloride]
cell viability [%]
Conditions	0.00617 µM	0.0185 µM	0.0556 µM	0.166667 µM	0.5 µM	1.5 µM	4.5 µM	13.5 µM
[1]	124	142	118	90.4	98.83	56.3	33.7	18.2
[2]	138	126	104	87.3	86.4	38.1	29.1	14.2
[3]	121	105	122	93.5	87.4	60.8	47.1	30.7
[4]	117	114	119	99.9	104	61.7	47.2	19.7

C#Cc1cccc(Nc2ncnc3cc(OCCOC)c(OCCOC)cc23)c1 [Erlotinib]
cell viability [%]
Conditions	0.0123 µM	0.037 µM	0.111111111 µM	0.333333 µM	1 µM	3 µM	9 µM	27 µM
[1]	104	80.4	102	89.2	72.1	46.1	24.3	34.5
[2]	108	104	113	101	57.3	35.3	19.8	17
[3]	101	108	99.9	81.5	68.8	49.3	33.1	40.5
[4]	88.3	115	117	79.3	85.1	43.3	24.4	22

COc1cc2c(cc1-c1c(C)noc1C)ncc1[nH]c(=O)n([C@H](C)c3ccccn3)c12 [I-BET151]
cell viability [%]
Conditions	0.0309 µM	0.0926 µM	0.277778 µM	0.833333 µM	2.5 µM	7.5 µM	22.5 µM	67.5 µM
[1]	95.3	120	141	81.4	50.3	21.1	22.3	32.5
[2]	119	126	92.8	31.3	28.6	16.7	23	37.9
[3]	102	106	117	64.5	47.6	35.1	36.6	45.2
[4]	87.7	107	87.5	47.8	49.6	38.9	42.9	53

Cc1cc(Nc2ncnc3ccc(NC4=NC(C)(C)CO4)cc23)ccc1Oc1ccn2ncnc2c1 [Irbinitinib(ARRY-380; ONT-380)]
cell viability [%]
Conditions	0.00617 µM	0.0185 µM	0.0556 µM	0.166667 µM	0.5 µM	1.5 µM	4.5 µM	13.5 µM
[1]	102	90.6	98.1	95.7	65.7	45.7	50.6	42.5
[2]	113	111	94.9	89.7	41.5	30.3	33	33.4
[3]	112	116	111	98.9	67.1	54.9	45.3	48.6
[4]	106	109	105	92.6	60.1	46.2	43.5	36.6

CS(=O)(=O)CCNCc1ccc(-c2ccc3ncnc(Nc4ccc(OCc5cccc(F)c5)c(Cl)c4)c3c2)o1.Cc1ccc(S(=O)(=O)O)cc1.Cc1ccc(S(=O)(=O)O)cc1.O [Lapatinib ditosylate monohydrate]
cell viability [%]
Conditions	0.00617 µM	0.0185 µM	0.0556 µM	0.166667 µM	0.5 µM	1.5 µM	4.5 µM	13.5 µM
[1]	100	88.5	87.2	74.9	58.2	41.5	40.8	24.9
[2]	107	96.9	92.2	59.3	38.8	27.7	31.9	17.9
[3]	104	94.6	92.3	85.4	69.8	38.4	48.1	34
[4]	98.9	94	94.6	68.7	60.1	29.7	38.5	24.5

CS(=O)(=O)CCNCc1ccc(-c2ccc3ncnc(Nc4ccc(OCc5cccc(F)c5)c(Cl)c4)c3c2)o1 [Lapatinib]
cell viability [%]
Conditions	0.0123 µM	0.037 µM	0.111111111 µM	0.333333 µM	1 µM	3 µM	9 µM	27 µM
[1]	78.4	133	100	68.6	40.4	44.6	21.6	8.25
[2]	87.5	112	87.1	42.6	30.1	28.2	21.2	12.5
[3]	80.9	110	84.9	70.4	42.1	44.9	31.7	5.72
[4]	81.5	113	84.5	53	32	29.4	20.7	16.9

C=CC(=O)Nc1cc(Nc2ncc(Cl)c(-c3c[nH]c4ccccc34)n2)c(OC)cc1N(C)CCN(C)C [Mutant EGFR inhibitor]
cell viability [%]
Conditions	0.00617 µM	0.0185 µM	0.0556 µM	0.166667 µM	0.5 µM	1.5 µM	4.5 µM	13.5 µM
[1]	98.2	93.9	94.8	50.8	37.3	16.6	5.63	11.5
[2]	94.7	83.8	62.6	29.1	26.6	9.39	1.63	7.99
[3]	87	93	86.5	39.6	38.2	22	12.8	26.6
[4]	75.6	86.8	89	35.9	20.9	6.23	3.77	19.9

CCOc1cc2ncc(C#N)c(Nc3ccc(OCc4ccccn4)c(Cl)c3)c2cc1NC(=O)/C=C/CN(C)C [Neratinib(HKI-272)]
cell viability [%]
Conditions	0.00617 µM	0.0185 µM	0.0556 µM	0.166667 µM	0.5 µM	1.5 µM	4.5 µM	13.5 µM
[1]	97	98	154	119	93.3	45.2	45.7	39.1
[2]	97.8	92.2	125	90.5	50.7	29	29.2	32.5
[3]	92	102	119	96.1	92.2	39.8	42.4	36.5
[4]	99.8	88.3	114	93.5	62.4	22.9	25.4	18.8

Cc1sc2c(c1C)C(c1ccc(Cl)cc1)=N[C@@H](CC(=O)Nc1ccc(O)cc1)c1nnc(C)n1-2 [OTX015]
cell viability [%]
Conditions	0.0123 µM	0.037 µM	0.111111111 µM	0.333333 µM	1 µM	3 µM	9 µM	27 µM
[1]	105	128	97.9	104	70.1	44.1	36.1	45.3
[2]	103	100	74.2	59.1	31.2	36	30.2	36.9
[3]	104	120	84.2	79.8	57.3	50.5	46.8	54.8
[4]	93.3	85.1	69.9	72.7	51.1	55.9	47.1	56.2

CCOc1cc2ncc(C#N)c(Nc3ccc(F)c(Cl)c3)c2cc1NC(=O)/C=C/CN(C)C [Pelitinib (EKB-569)]
cell viability [%]
Conditions	0.00617 µM	0.0185 µM	0.0556 µM	0.166667 µM	0.5 µM	1.5 µM	4.5 µM	13.5 µM
[1]	79.7	121	111	98.2	42.1	42.4	33.2	8.16
[2]	82.1	115	93.5	76.8	22	30.3	34.1	-2.36
[3]	81.3	125	103	76.4	58.9	39.5	33.4	36.2
[4]	83	113	97.4	77.8	53.1	18.3	19.6	22.1
